Test results reported in patent US20250034084A1, “COMPOSITIONS AND METHODS FOR PREVENTING OR TREATING MYCOSIS” (AMTIXBIO CO., LTD., priority 2016, published 2025).
Values after ≈ are worked out from the molar mass of the structure shown.

Experiments:
[1] = test system: Cryptococcus neoformans wild-type (H99S); test: Drug efficacy in Galleria mellonella insect model infected with C. neoformans
Description: The wild-type (H99S) strain of Cryptococcus neoformans, which is pathogenic fungi, was inoculated into a yeast extract, peptone, and dextrose (YPD) liquid medium, cultured for 16 hours, and then washed twice with phosphate buffered saline (PBS), to prepare a final sample of 10^6 cells/ml. […] A 4 p1 suspension of C. neoformans prepared was injected into a proleg of larvae, so that 4,000 pathogen cells were infected per larva, in which an automatic injector (PB600-1) manufactured by Hamilton Company, and 100 pl syringes and needles were used. […] A group into which PBS alone was injected each time after the infection with C. neoformans was tested as a positive control, and a group in which both infection and drug injection were replaced with PBS was tested as a negative control. […] The larvae were determined as dead in a case where the larvae became dark-colored and made no movement. […] For significance with the controls, a significance level was determined using the Long-rank (Mantel-Cox) method.

[2] = test system: Candida albicans SC5314 (ATCC); test: Antifungal activity assay (MIC), NCCLS method; assay type: cell-based; conditions: RPMI 1640 medium
Excerpt: (§1) In order to measure the minimum inhibitory concentration (MIC), strains Candida albicans SC5314 (ATCC), Candida glabrata BG2 (ATCC), and Cryptococcus neoformans var. grubii […] were used. All the strains used in the test examples of the present invention were purchased from Korean Culture Center of Microorganisms (KCCM) and ATCC, and used. […] As a control group, amphotericin B and fluconazole, which are known to have excellent antifungal inhibitory activity with a problem of human toxicity, were used. Specifically, in order to prepare a medium first, 8.4 g of RPMI-1640 powder (Sigma; […]-1L) was added to 900 ml of distilled water. Next, 34.5 g of MOPS was added thereto, to bring the final concentration to 0.165 M. Then, 100 ml of 20% glucose was added thereto, and then the pH of the resultant was adjusted to 7 using NaOH. Next, after performing filtration with a filter, the filtrate was stored in a refrigeration condition at 4° C. for use in the next experiment. The experimental method and procedure for the MIC assay were as follows: […] (c) in a case of Aspergillus fumigatus, a diluent was prepared at a concentration of 1×10^5 conidia/ml; (d) a 96-well plate was used and 100 μl of the solution was added to each well, so that 2 μl of diluted drug was prepared; (e) 200 μl of the solution was added to a well into which the highest concentration of drug was to be added, and dilution was performed by serial dilution; (f) after performing static culture for 48 hours at 37° C., a degree of growth was measured at OD600 and a comparison was made.

[3] = test system: Cryptococcus neoformans var. grubii H99 (ATCC); test: Antifungal activity assay (MIC), NCCLS method; assay type: cell-based; conditions: RPMI 1640 medium
Excerpt: as §1

[4] = test system: Candida glabrata BG2 (ATCC); test: Antifungal activity assay (MIC), NCCLS method; assay type: cell-based; conditions: RPMI 1640 medium
Excerpt: as §1

[5] = test system: Aspergillus fumigatus strains (KCCM32791, KCCM60031, KCCM60293, KCCM60036, KCCM60031, and KCCM60027); test: MIC test against several Aspergillus fumigatus strains (FIG. 2); assay type: cell-based
[6] = test system: Trichophyton tonsurans, Trichophyton rubrum, Trichophyton mentagrophytes; test: Suppressive activity against Trichophytons on YPD solid medium; assay type: cell-based; conditions: six Trichophyton strains
[7] = test system: Fusarium graminearum (KCTC16656) and Fusarium (KSU11480); assay type: cell-based; conditions: YPD solid medium, FIG. 4

Molecule | survival rate on day 7 of the infection ([1]; PBS group all died) [%] | survival of larvae on day 3 of the infection ([1]; drug injected 3 h after infection and once every 24 h for two more days, PBS group 60%) | MIC C. albicans [2] [µg/mL] | MIC C. neoformans [3] [µg/mL] | MIC C. glabrata [4] [µg/mL] | inhibitory activity (MIC, average values) compared with amphotericin B [5] | suppressive activity against Trichophytons [6] | suppressive activity against phytopathogenic fungi [7]
CCC(N)C(=O)NCc1ccc(OCc2cccc(F)c2)cc1.Cl (racemic) [Compound 18, (R)/(S)-1-((4-((3-(fluorobenzyl)oxy)benzyl)amino)-1-oxobutane-2-aminium chloride] | 50 | all survived | >128 | 128 | >128 | – | – | –
CCC(N)C(=O)NCc1ccc(OCc2ccc(C(F)(F)F)cc2)cc1.Cl (racemic) [Compound 22, (R)/(S)-1-oxo-1-((4-((4-(trifluoromethyl)benzyl)oxy)benzyl)amino)butane-2-aminium chloride] | – | – | 64 | 16 | 32 | higher inhibitory activity than amphotericin B | – | –
CCC(NC)C(=O)NCc1ccc(OCc2cccc(Cl)c2)cc1 (racemic) [Compound 28, (R)/(S)-N-(4-((3-chlorobenzyl)oxy)benzyl)-2-(methylamino)butanamide] | – | – | 64 (≈ 185 µM) | 16 (≈ 46.1 µM) | 64 (≈ 185 µM) | higher inhibitory activity than amphotericin B | – | –
CN1CCCC1C(=O)NCc1ccc(OCc2ccc(Cl)cc2)cc1 (racemic) [Compound 44, (R)/(s)-1-methyl-N-(4-((4-chlorobenzyl)oxy)benzyl)pyrrolidine-2-carboxamide] | – | – | 32 (≈ 89.2 µM) | 8 (≈ 22.3 µM) | 64 (≈ 178 µM) | – | – | –
Cl.O=C(NCc1ccc(OCc2cccc(F)c2)cc1)C1CCCN1 (racemic) [Compound 49, (R)/(S)-2-((4-((3-fluorobenzyl)oxy)benzyl)carbamoyl)pyrrolidi-1-nium chloride] | – | – | >128 | 32 | >128 | – | – | –
Cl.O=C(NCc1ccc(OCc2ccc(C(F)(F)F)cc2)cc1)C1CCCN1 (racemic) [Compound 50, (R)/(S)-2-((4-((4-(trifluoromethyl)benzyl)oxy)benzyl)carbamoyl)pyrrolidi-1-nium chloride] | – | – | 64 | 8 | 128 | – | – | –
Cl.O=C(NCc1ccc(OCc2ccc(Cl)cc2)cc1)C1CCCN1 (racemic) [Compound 51, (R)/(S)-2-((4-(4-chlorobenzyl)oxy)benzyl) carbamoyl)pyrrolidi-1-nium chloride] | – | – | 64 | 8 | 128 | – | – | –
CN1CCC(C(=O)NCc2ccc(OCc3cccc(F)c3)cc2)C1 (racemic) [Compound 52, (R)/(s)-1-methyl-N-(4-((3-fluorobenzyl)oxy)benzyl)pyrrolidine-3-carboxamide] | – | – | 128 (≈ 374 µM) | 8 (≈ 23.4 µM) | 128 (≈ 374 µM) | – | – | –
CN1CCC(C(=O)NCc2ccc(OCc3ccc(C(F)(F)F)cc3)cc2)C1 (racemic) [Compound 53, (R)/(S)-1-methyl-N-(4-((4-(trifluoromethyl)benzyl)oxy)benzyl)pyrrolidine-3-carboxamide] | – | – | 64 (≈ 163 µM) | 8 (≈ 20.4 µM) | 64 (≈ 163 µM) | – | – | –
CN1CCC(C(=O)NCc2ccc(OCc3ccc(Cl)cc3)cc2)C1 (racemic) [Compound 54, (R)/(s)-1-methyl-N-(4-((4-chlorobenzyl)oxy)benzyl)pyrrolidine-3-carboxamide] | – | – | 64 (≈ 178 µM) | 8 (≈ 22.3 µM) | 64 (≈ 178 µM) | – | – | –
C[C@@H]1[C@H](O)[C@@H](C)/C=C/C=C/C=C/C=C/C=C/C=C/C=C/[C@H](O[C@@H]2O[C@H](C)[C@@H](O)[C@H](N)[C@@H]2O)C[C@@H]2O[C@](O)(C[C@@H](O)C[C@@H](O)[C@H](O)CC[C@@H](O)C[C@@H](O)CC(=O)O[C@H]1C)C[C@H](O)[C@H]2C(=O)O [AmpB, amphotericin B, reference compound] | – | – | 0.25 (≈ 0.271 µM) | 0.125 (≈ 0.135 µM) | 0.5 (≈ 0.541 µM) | – | – | –
(R)/(S)-1-((4-((4-(trifluorobenzyl)oxy)benzyl)amino)-1-oxopentane-2-aminium chloride [Compound 26] | – | – | 16 | 4 | 8 | higher inhibitory activity than amphotericin B | excellent suppressive activity | very excellent suppressive activity
